This note sets out measurements from ChEMBL document CHEMBL3351632, “Design and synthesis of 4-heteroaryl 1,2,3,4-tetrahydroisoquinolines as triple reuptake inhibitors” (ACS Med Chem Lett, 2014).

The subject of data set [1] is Liver microsome. Kind of data set: Drug metabolism in rat liver microsomes assessed as formation of (+)-2-(4-(benzo[b]thiophen-5-yl)-2-methyl-1,2,3,4-tetrahydroisoquinolin-7-ylamino)ethanol. The format is ADME.
A short description of data set [2]: Volume of distribution at steady state in Sprague-Dawley rat at 10 mg/kg, po and 1 mg/kg, iv. The format is ADME, organism-based. To be noted: in vivo, read-out: Vdss.
Data set [3] in a line: Volume of distribution at steady state in cynomolgus monkey at 2 mg/kg, po and 0.5 mg/kg, iv. In kind it is ADME, organism-based, Macaca fascicularis. To be noted: in vivo, read-out: Vdss.
Data set [4] in a line: Ratio of drug uptake in brain to plasma of Sprague-Dawley rat at 10 mg/kg, po measured after 1 hr. In kind it is ADME, organism-based. On the set-up: dose 10 mg/kg, route oral. To be noted: read-out: BPR.
Data set [5] is described as follows: Oral bioavailability in Sprague-Dawley rat at 10 mg/kg. In kind it is ADME, organism-based. Particulars: in vivo.
The species named for the next data set is Rattus norvegicus. The data set is described as follows: Drug metabolism in rat assessed as formation of (+)-2-(4-(benzo[b]thiophen-5-yl)-2-methyl-1,2,3,4-tetrahydroisoquinolin-7-ylamino)ethanol. The format is ADME, organism-based. To be noted: in vivo.
The nature of data set [6]: Clearance in cynomolgus monkey at 2 mg/kg, po and 0.5 mg/kg, iv. The format is ADME, organism-based, Macaca fascicularis. Particulars: in vivo.
Data set [7] in a line: Oral bioavailability at steady state in cynomolgus monkey at 2 mg/kg. In kind it is ADME, organism-based, Macaca fascicularis. To be noted: in vivo.
In data set [8] the test system is Liver microsome. Kind of data set: Drug metabolism in human liver microsomes assessed as formation of (+)-2-(4-(benzo[b]thiophen-5-yl)-2-methyl-1,2,3,4-tetrahydroisoquinolin-7-ylamino)ethanol. In kind it is ADME.
Data set [9] can be described thus: Clearance in Sprague-Dawley rat at 10 mg/kg, po and 1 mg/kg, iv. The format is ADME, organism-based. Particulars: in vivo.

Consider `CN1Cc2cc(N3CCOCC3)ccc2[C@@H](c2ccc3sccc3c2)C1`, for which the Drug metabolism entry in the data set on Liver microsome [1] was “metabolite_detected”; in the data set listed under Rattus norvegicus it was “metabolite_notdetected”; in the data set on Liver microsome [8] it was “metabolite_detected”. For the same compound, the Vd in data set [2] came to 14 L/kg; in [3], 16 L/kg. In [4], the Kp at 1 h was determined as 3. For the same compound, the bioavailability – broadly, dose-corrected exposure relative to a reference, in per cent – was 81% in data set [5] and 39% in [7]. For the same compound, the figures for the clearance in data set [6] and in [9] were 27 mL/min/kg and 47 mL/min/kg, respectively.
